# Data published in PMC9363158 (HIV medicine, 2021).
# Where “and” joins values, the source holds several entries; their conditions need not be identical. Equal values may be shown once. Read-outs that look alike come from different tables or passages of the source.
# Experiments:
# [1] = Jadelle subdermal implants, cited from earlier work
# rhCYP1A2 = molecular target: T1, rhCYP1A2 (Homo sapiens, UniProt P05177); test: levonorgestrel clearance by recombinant human CYP; format: in vitro ADME
# T1 sequence (P05177 1-516): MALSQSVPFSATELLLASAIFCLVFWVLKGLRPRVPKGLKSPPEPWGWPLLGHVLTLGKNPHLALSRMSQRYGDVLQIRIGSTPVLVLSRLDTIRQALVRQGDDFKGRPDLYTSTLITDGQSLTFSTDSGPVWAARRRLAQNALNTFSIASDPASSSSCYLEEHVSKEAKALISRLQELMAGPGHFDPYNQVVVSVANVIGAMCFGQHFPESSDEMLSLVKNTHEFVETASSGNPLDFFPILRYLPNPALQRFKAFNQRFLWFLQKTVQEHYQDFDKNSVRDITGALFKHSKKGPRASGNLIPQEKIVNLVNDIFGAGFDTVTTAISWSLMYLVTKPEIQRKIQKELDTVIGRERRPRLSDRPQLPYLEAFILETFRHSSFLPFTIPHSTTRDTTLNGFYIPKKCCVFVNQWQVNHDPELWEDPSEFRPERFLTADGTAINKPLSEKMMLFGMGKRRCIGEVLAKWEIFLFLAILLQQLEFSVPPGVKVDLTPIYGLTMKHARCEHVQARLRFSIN
# rhCYP2B6 = molecular target: T2, rhCYP2B6 (Homo sapiens, UniProt P20813); test: levonorgestrel clearance by recombinant human CYP; format: in vitro ADME
# T2 sequence (P20813 1-491): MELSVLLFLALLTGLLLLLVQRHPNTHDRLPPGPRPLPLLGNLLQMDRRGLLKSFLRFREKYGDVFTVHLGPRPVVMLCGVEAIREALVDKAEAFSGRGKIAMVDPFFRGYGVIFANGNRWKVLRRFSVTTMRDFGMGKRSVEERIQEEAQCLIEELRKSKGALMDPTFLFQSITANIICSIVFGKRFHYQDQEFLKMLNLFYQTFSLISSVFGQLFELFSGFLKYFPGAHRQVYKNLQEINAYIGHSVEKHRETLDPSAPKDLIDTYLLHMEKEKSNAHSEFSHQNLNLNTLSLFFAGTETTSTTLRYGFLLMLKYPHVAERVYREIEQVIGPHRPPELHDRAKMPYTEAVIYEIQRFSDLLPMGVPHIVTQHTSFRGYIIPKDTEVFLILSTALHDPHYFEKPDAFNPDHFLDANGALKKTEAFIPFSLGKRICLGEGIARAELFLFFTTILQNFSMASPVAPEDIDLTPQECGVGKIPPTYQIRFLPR
# rhCYP2C9 = rhCYP2C9 (Homo sapiens, UniProt P11712); test: levonorgestrel clearance by recombinant human CYP; format: in vitro ADME
# [2] = administered orally; cited from earlier work
# [3] = levonorgestrel CLint.app. by cryopreserved primary human hepatocytes; format: in vitro ADME; details: cryopreserved primary human hepatocytes (plated)
# rhCYP3A5 = rhCYP3A5 (Homo sapiens, UniProt P20815); test: levonorgestrel clearance by recombinant human CYP; format: in vitro ADME
# hepatic CYPs = test: total apparent and systemic plasma clearance scaled from rhCYP data; format: in vitro ADME, human
# rhCYP2C19 = rhCYP2C19 (Homo sapiens, UniProt P33261); test: levonorgestrel clearance by recombinant human CYP; format: in vitro ADME
# [4] = cited from earlier work
# rhCYP3A4 = rhCYP3A4 (Homo sapiens, UniProt P08684); test: levonorgestrel clearance by recombinant human CYP; format: in vitro ADME
# CYP2C9 = details: read-out: mean observed Km of progesterone metabolism by CYP2C9; liver microsome studies; cited from earlier work
# CYP3A4 [5] = details: read-out: mean observed Km of progesterone metabolism by CYP3A4; liver microsome studies; cited from earlier work
# CYP2C19 = details: read-out: mean observed Km of progesterone metabolism by CYP2C19; liver microsome studies; cited from earlier work
# CYP3A4 [6] = test system: CYP3A4
# CYP1A2 = test: CYP gene expression in human hepatocytes; format: in vitro ADME
# CYP2B6 [7] = test: CYP gene expression in human hepatocytes; format: in vitro ADME
# CYP3A4 [8] = test: in vitro; details: human, fold induction of CYP3A4 expression
# CYP3A4 [9] = details: total dolutegravir up to and including 40 μM, 48 h; cited from earlier work
# [10] = dolutegravir protein binding in Williams' Medium E by rapid equilibrium dialysis; format: in vitro ADME
# CYP2B6 [11] = details: total dolutegravir up to and including 40 μM, 48 h; cited from earlier work
# [12] = in vivo; cited from earlier work
# [13] = clinical observation with rifampin; cited from earlier work
# [14] = scaled from rhCYP data to adult female liver (Eq. 2)
# [15] = levonorgestrel 5 μM, 60 min, vs ketoconazole inhibitor control
# [16] = human, cryopreserved primary human hepatocytes
# Sequence of rhCYP3A5 (P20815 whole entry): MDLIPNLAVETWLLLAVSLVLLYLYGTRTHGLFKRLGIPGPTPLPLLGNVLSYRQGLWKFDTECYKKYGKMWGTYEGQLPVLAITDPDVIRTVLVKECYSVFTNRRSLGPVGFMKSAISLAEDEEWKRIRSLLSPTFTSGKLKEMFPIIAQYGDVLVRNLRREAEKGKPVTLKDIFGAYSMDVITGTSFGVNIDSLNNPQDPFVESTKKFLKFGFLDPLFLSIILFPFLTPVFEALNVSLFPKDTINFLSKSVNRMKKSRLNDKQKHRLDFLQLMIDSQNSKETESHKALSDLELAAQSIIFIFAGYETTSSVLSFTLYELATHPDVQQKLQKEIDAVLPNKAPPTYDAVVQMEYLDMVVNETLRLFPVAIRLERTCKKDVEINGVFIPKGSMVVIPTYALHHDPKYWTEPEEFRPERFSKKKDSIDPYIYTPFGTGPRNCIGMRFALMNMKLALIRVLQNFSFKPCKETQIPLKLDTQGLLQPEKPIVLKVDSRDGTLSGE
# Sequence of rhCYP3A4 (P08684 whole entry): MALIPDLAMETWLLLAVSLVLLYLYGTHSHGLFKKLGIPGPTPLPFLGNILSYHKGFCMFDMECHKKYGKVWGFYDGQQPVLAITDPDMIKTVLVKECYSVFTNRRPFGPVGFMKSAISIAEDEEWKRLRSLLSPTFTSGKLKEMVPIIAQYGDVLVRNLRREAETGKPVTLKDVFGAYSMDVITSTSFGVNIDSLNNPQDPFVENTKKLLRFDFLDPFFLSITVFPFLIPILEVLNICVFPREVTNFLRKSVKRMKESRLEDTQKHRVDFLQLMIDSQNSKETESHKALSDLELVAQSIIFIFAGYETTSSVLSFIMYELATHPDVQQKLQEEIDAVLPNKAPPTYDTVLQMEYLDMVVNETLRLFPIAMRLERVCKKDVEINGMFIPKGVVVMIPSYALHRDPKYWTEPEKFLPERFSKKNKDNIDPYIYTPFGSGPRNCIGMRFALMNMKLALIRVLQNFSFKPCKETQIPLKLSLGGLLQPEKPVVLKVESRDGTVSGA
# Sequence of rhCYP2C19 (P33261 whole entry): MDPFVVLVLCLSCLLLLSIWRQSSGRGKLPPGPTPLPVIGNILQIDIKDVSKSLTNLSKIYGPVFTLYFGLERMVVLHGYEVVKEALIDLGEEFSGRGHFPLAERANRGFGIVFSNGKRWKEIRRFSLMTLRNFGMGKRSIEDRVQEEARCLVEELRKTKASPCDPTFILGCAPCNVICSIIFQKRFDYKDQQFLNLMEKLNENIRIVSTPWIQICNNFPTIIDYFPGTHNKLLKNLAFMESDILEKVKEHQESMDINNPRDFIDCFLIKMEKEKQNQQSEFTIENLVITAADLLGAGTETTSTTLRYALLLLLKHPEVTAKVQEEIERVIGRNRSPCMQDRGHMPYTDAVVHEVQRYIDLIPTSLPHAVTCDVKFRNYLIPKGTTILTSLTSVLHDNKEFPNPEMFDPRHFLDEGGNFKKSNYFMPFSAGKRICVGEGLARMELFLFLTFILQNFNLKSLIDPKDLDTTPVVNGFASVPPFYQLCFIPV
# Sequence of rhCYP2C9 (P11712 whole entry): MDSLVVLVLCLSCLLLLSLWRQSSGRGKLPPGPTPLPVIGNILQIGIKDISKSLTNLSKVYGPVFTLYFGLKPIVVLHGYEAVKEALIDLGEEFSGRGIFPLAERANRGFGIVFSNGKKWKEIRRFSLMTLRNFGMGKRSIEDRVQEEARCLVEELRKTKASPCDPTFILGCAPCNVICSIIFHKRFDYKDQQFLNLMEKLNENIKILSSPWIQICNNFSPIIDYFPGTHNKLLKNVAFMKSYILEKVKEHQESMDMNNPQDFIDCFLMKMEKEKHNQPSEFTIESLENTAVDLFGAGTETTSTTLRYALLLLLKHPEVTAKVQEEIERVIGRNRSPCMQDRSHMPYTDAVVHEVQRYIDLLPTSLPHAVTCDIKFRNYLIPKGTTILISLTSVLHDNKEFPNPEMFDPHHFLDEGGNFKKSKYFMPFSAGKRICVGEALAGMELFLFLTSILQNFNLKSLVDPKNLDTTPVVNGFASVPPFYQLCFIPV
smiles,measurement,setting,value
C#C[C@]1(O)CC[C@H]2[C@@H]3CCC4=CC(=O)CC[C@@H]4[C@H]3CC[C@@]21CC [levonorgestrel],plasma concentration of levonorgestrel,[1]; 1 month after insertion,1.39 nM and 435 pg/mL
same,plasma concentration of levonorgestrel,[1]; 3 years after insertion,0.90 nM and 280 pg/mL
same,levonorgestrel CLint.app. rhCYP1A2,"rhCYP1A2; levonorgestrel 5 μM, 60 min, vs α-naphthoflavone inhibitor control",0.028 ± 0.012 µL/min/pmol
same,"TCLH, CYP1A2",rhCYP1A2; [14],3.4 ± 1.5 L/h
same,levonorgestrel CLint.app. rhCYP2B6,"rhCYP2B6; levonorgestrel 5 μM, 60 min, vs sertraline inhibitor control",0.052 ± 0.004 µL/min/pmol
same,"TCLH, CYP2B6",rhCYP2B6; [14],2.6 ± 0.2 L/h
same,levonorgestrel CLint.app. rhCYP2C9,"rhCYP2C9; levonorgestrel 5 μM, 60 min, vs sulfaphenazole inhibitor control",0.062 ± 0.010 µL/min/pmol
same,"TCLH, CYP2C9",rhCYP2C9; [14],11.6 ± 1.9 L/h
same,oral bioavailability,[2],high bioavailability
same,hepatocyte CLint at 1 nM,[3],22.4 ± 5 µL/min/1e6 cells
same,levonorgestrel CLint.app. rhCYP3A5,rhCYP3A5; [15],0.178 ± 0.027 µL/min/pmol
same,"TCLH, CYP3A5",rhCYP3A5; [14],9.4 ± 1.4 L/h
same,total systemic plasma clearance,"hepatic CYPs; from CLapp, fu 3% (Eq. 4)",2.38 ± 0.46 L/h
same,total apparent clearance (CLapp) by the hepatic CYPs measured,hepatic CYPs; sum of TCLH of six CYPs (Eq. 3),80.97 ± 15.53 L/h
same,levonorgestrel CLint.app. rhCYP2C19,"rhCYP2C19; levonorgestrel 5 μM, 60 min, vs (+)-N-3-benzylnirvanol inhibitor control",0.046 ± 0.005 µL/min/pmol
same,"TCLH, CYP2C19",rhCYP2C19; [14],1.6 ± 0.2 L/h
same,bound to human plasma,[4],97%
same,fraction unbound in plasma (fu),[4]; set from 97% binding,3%
same,levonorgestrel CLint.app. mediated by rhCYP3A4,rhCYP3A4; [15],0.182 ± 0.036 µL/min/pmol
same,"total intrinsic clearance by a single CYP in the liver as a whole (TCLH), CYP3A4",rhCYP3A4; [14],52.5 ± 10.4 L/h
CC(=O)[C@H]1CC[C@H]2[C@@H]3CCC4=CC(=O)CC[C@]4(C)[C@H]3CC[C@]12C [progesterone],Km,CYP2C9,46 µM
same,Km,CYP3A4 [5],80 µM
same,Km,CYP2C19,37 µM
CCC1(c2ccccc2)C(=O)NC(=O)NC1=O [phenobarbital],fold increase in CYP3A4 expression,"CYP3A4 [6]; human, hepatocytes",4.8 ± 0.7 fold
same,"fold induction at 72 h, 1 mM",CYP1A2; [16],2.7 ± 0.6
same,"fold induction at 72 h, 1 mM",CYP2B6 [7]; [16],2.6 ± 1.1
C[C@@H]1CCO[C@H]2Cn3cc(C(=O)NCc4ccc(F)cc4F)c(=O)c(O)c3C(=O)N12 [dolutegravir],fold induction,CYP3A4 [8],2.3 ± 0.4
same,effect on expression of CYP3A4,CYP3A4 [9],expression of neither CYP2B6 nor CYP3A4 was affected
same,effect on expression of CYP3A4,CYP3A4 [6],no effect
same,"fraction unbound at 4 h, 5 μM",[10],0.43 ± 0.09
same,induction of CYP1A2 expression (≥ two-fold above vehicle control),"CYP1A2; dolutegravir 0.00033–10 μM (unbound 0.142–4310 nM), 72 h",did not induce the expression of CYP1A2
same,effect on expression of CYP2B6,"CYP2B6 [7]; dolutegravir at concentrations spanning unbound range reported in human plasma (24.6–57.2 nM), 72 h",no effect
same,"fold induction at 72 h, 3.33 μM",CYP2B6 [7]; [16],2.2 ± 0.3
same,"fold induction at 72 h, 10 μM",CYP2B6 [7]; [16],2.3 ± 0.7
same,effect on expression of CYP2B6,CYP2B6 [11],expression of neither CYP2B6 nor CYP3A4 was affected
same,unbound concentration range in human plasma,[12],24.6 to 57.2 nM
CO[C@H]1/C=C/O[C@@]2(C)Oc3c(C)c(O)c4c(O)c(c(/C=N/N5CCN(C)CC5)c(O)c4c3C2=O)NC(=O)/C(C)=C\C=C\[C@H](C)[C@H](O)[C@@H](C)[C@@H](O)[C@@H](C)[C@H](OC(C)=O)[C@@H]1C [rifampin],"fold induction at 72 h, 10 μM",CYP2B6 [7]; [16],2 ± 0.5
same,decrease of levonorgestrel exposure,[13],58%
